This assay deals with CDK7/Cyclin H/MAT1 kinase (Homo sapiens (Human), UniProt P50613). Description: Enzyme activity test, mobility shift assay (Table 1). Type of assay: biochemical. The following applies: 2 mM ATP; pre-incubated 0 and 60 minutes. As for the experimental part: IC50 values of the compounds for CDK7 kinase were detected in Wuxi Biortus Biosciences Co. Ltd.
Sequence of CDK7/Cyclin H/MAT1 kinase (P50613 whole entry): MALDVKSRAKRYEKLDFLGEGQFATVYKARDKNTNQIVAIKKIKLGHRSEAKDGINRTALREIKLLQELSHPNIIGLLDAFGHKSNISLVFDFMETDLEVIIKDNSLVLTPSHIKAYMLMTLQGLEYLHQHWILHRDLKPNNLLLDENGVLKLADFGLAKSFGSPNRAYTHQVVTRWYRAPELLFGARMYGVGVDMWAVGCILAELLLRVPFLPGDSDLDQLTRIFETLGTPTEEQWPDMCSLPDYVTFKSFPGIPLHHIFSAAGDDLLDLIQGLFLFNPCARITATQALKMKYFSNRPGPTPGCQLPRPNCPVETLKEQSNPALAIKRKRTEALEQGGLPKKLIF
Sequence of CDK7/Cyclin H/MAT1 kinase (P51946 whole entry partner): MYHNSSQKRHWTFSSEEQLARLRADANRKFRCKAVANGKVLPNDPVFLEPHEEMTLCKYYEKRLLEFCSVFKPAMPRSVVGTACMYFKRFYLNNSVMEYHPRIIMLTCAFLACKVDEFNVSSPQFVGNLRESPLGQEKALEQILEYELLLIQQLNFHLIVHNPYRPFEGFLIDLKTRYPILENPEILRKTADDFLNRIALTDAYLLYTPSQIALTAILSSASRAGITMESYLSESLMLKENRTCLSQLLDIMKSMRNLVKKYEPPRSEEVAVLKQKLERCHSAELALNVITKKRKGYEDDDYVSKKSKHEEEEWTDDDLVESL
Sequence of CDK7/Cyclin H/MAT1 kinase (P51948 whole entry partner): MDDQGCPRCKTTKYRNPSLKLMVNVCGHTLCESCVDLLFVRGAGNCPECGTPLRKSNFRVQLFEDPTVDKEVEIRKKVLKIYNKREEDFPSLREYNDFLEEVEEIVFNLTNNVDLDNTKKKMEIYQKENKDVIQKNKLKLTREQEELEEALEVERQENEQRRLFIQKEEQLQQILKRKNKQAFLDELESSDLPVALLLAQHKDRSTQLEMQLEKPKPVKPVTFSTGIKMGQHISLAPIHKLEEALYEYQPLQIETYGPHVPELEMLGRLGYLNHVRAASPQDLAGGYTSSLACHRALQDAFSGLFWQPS
The compound powder was dissolved in 100% DMSO to prepare a 10 mM storage solution. The storage solution was further diluted to 0.5 mM as the initial concentration, and continuously diluted 3 times to obtain 10 compound solutions with different concentrations. The compound and enzyme were pre-incubated for 0 minutes and 60 minutes, respectively, using duplicate detection.
was used as a positive control, and Mobility shift assay method was used to detect CDK kinase (such as CDK7, CDK9, CDK12 and CDK2) activity of the compounds.
One may read the IC50 as the concentration at which inhibition is half-maximal. On to `COC(=O)Nc1ccc2c(-c3nc(N[C@H]4CCC[C@H](O)C4)ncc3C(F)(F)F)c[nH]c2c1Br` [Compound T-50], for which the 50% inhibitory concentration (IC50) is greater than 500 nM. `COC(=O)N(C)c1ccc2c(-c3nc(N[C@H]4CCC(C)(C)NC4)ncc3C(F)(F)F)c[nH]c2c1P(C)(C)=O` [Compound T-103]: the IC50 is less than 50 nM. As to `COC(=O)Nc1ccc2c(-c3nc(N[C@H]4CCC[C@H](O)C4)ncc3C(F)(F)F)c[nH]c2c1Br` [Example T-30], the IC50 was greater than 500 nM.

Regarding `CN(C)C(=O)Oc1ccc2c(-c3nc(N[C@H]4CCC(C)(C)NC4)ncc3C(F)(F)F)c[nH]c2c1` [Example T-32], the 50% inhibitory concentration (IC50) fell in the range of 50 to 500 nM. As for `CN(C)C(=O)n1cc(-c2nc(N[C@H]3CCC(C)(C)NC3)ncc2C(F)(F)F)c2ccc(O)cc21` [Example T-33], the IC50 lay within 50 to 500 nM. With `COC(=O)Nc1ccc2c(-c3nc(N[C@H]4CCC5(CC5)NC4)ncc3C(F)(F)F)c[nH]c2c1OC` [Example T-38] the figure was less than 50 nM; with `COC(=O)Nc1ccc2c(-c3nc(N[C@H]4CCNC4)ncc3C(F)(F)F)c[nH]c2c1Br` [Example T-39], 50 to 500 nM. As for `COC(=O)Nc1ccc2c(-c3nc(N[C@H]4CCCNC4)ncc3C(F)(F)F)cn(C)c2c1Br` [Example T-40], the IC50 fell in the range of 50 to 500 nM. Consider `COC(=O)N(C)c1ccc2c(-c3nc(N[C@H]4CCCNC4)ncc3C(F)(F)F)cn(C)c2c1Br` [Example T-41], for which the half-maximal inhibitory concentration (IC50) fell in the range of 50 to 500 nM. As for `CCCOC(=O)Nc1ccc2c(-c3nc(N[C@H]4CCCNC4)ncc3C(F)(F)F)c[nH]c2c1Br` [Example T-45], the half-maximal inhibitory concentration (IC50) was 50 to 500 nM. For the compound `O=C1OCCN1c1ccc2c(-c3nc(N[C@H]4CCNC4)ncc3C(F)(F)F)c[nH]c2c1Br` [Example T-46], the IC50 was 50 to 500 nM. Turning to `O=C1CCCN1c1ccc2c(-c3nc(N[C@H]4CCNC4)ncc3C(F)(F)F)c[nH]c2c1Br` [Example T-47], the 50% inhibitory concentration (IC50) lay in the range of 50 to 500 nM. `O=C1OCCN1c1ccc2c(-c3nc(N[C@H]4CCCNC4)ncc3C(F)(F)F)c[nH]c2c1` [Example T-49]: the half-maximal inhibitory concentration (IC50) is less than 50 nM. For the compound `COC(=O)Nc1ccc2c(-c3nc(N[C@H]4CC[C@@H](N)C4)ncc3C(F)(F)F)c[nH]c2c1Br` [Example T-53], the half-inhibitory concentration (IC50) was greater than 500 nM. With `COC(=O)Nc1ccc2c(-c3nc(N[C@H]4CC[C@H](N)C4)ncc3C(F)(F)F)c[nH]c2c1Br` [Example T-54] the figure was 50 to 500 nM; with `COC(=O)Nc1ccc2c(-c3nc(N[C@@H]4CC[C@H](N)C4)ncc3C(F)(F)F)c[nH]c2c1Br` [Example T-55], greater than 500 nM; with `COC(=O)Nc1ccc2c(-c3nc(N[C@@H]4CC[C@@H](N)C4)ncc3C(F)(F)F)c[nH]c2c1Br` [Example T-56], 50 to 500 nM. In the case of `COC(=O)Nc1ccc2c(-c3nc(N[C@@H]4CCC[C@H]4N)ncc3C(F)(F)F)c[nH]c2c1Br` [Example T-57], the IC50 lay in the range of 50 to 500 nM.

For `COC(=O)Nc1ccc2c(-c3nc(N[C@@H]4CCC[C@@H]4N)ncc3C(F)(F)F)c[nH]c2c1Br` [Example T-58], the IC50 was 50 to 500 nM. For `COC(=O)Nc1ccc2c(-c3nc(N[C@H]4CCC[C@H]4N)ncc3C(F)(F)F)c[nH]c2c1Br` [Example T-59], the IC50 fell in the range of 50 to 500 nM. In the case of `COC(=O)Nc1ccc2c(-c3nc(N[C@@H]4CCNC4)ncc3C(F)(F)F)c[nH]c2c1Br` [Example T-61], the 50% inhibitory concentration (IC50) was 50 to 500 nM.

As to `COC(=O)Nc1ccc2c(-c3nc(N[C@H]4CCCNC4)ncc3Cl)c[nH]c2c1Br` [Example T-71], the IC50 is less than 50 nM.

Turning to `COC(=O)Nc1ccc2c(-c3nc(N[C@H]4CCC(C)(C)NC4)ncc3Cl)c[nH]c2c1Br` [Example T-72], the half-maximal inhibitory concentration (IC50) is less than 50 nM. As to `COC(=O)Nc1ccc2c(-c3nc(N[C@H]4CCCNC4)ncc3C)c[nH]c2c1Br` [Example T-76], the IC50 was less than 50 nM. As for `CCc1cnc(N[C@H]2CCCNC2)nc1-c1c[nH]c2c(Br)c(NC(=O)OC)ccc12` [Example T-77], the IC50 is less than 50 nM. Consider `COC(=O)Nc1ccc2c(-c3nc(N[C@H]4CCCNC4)ncc3C(C)C)c[nH]c2c1Br` [Example T-78], for which the IC50 is 50 to 500 nM. Turning to `COC(=O)Nc1ccc2c(-c3nc(N[C@H]4CCCNC4)ncc3C(F)(F)F)c[nH]c2c1C1CCOC1` (some centres unmarked) [Example T-83], the IC50 was less than 50 nM. For `COC(=O)Nc1ccc2c(-c3nc(N[C@H]4CCC(C)(C)NC4)ncc3Cl)c[nH]c2c1C(F)(F)F` [Example T-87], the half-inhibitory concentration (IC50) is less than 50 nM. `COC(=O)Nc1ccc2c(-c3nc(N[C@H]4CCC(C)(C)NC4)ncc3C(F)(F)F)c[nH]c2c1SC(C)C` [Example T-89]: the IC50 was less than 50 nM. Then `C#Cc1c(NC(=O)OC)ccc2c(-c3nc(N[C@H]4CCC(C)(C)NC4)ncc3C(F)(F)F)c[nH]c12` [Example T-90], with less than 50 nM; and `COC(=O)Nc1ccc2c(-c3nc(N[C@H]4CCC(C)(C)NC4)ncc3C(F)(F)F)c[nH]c2c1OC1CCCC1` [Example T-92], with 50 to 500 nM; and `COC(=O)Nc1ccc2c(-c3nc(N[C@H]4CCC(C)(C)NC4)ncc3C(F)(F)F)c[nH]c2c1OC1CCC1` [Example T-93], with less than 50 nM.

As to `COC(=O)Nc1ccc2c(-c3nc(N[C@H]4CCC(C)(C)NC4)ncc3C(F)(F)F)c[nH]c2c1OC(C)C` [Example T-94], the IC50 is less than 50 nM. For the compound `CCOc1c(NC(=O)OC)ccc2c(-c3nc(N[C@H]4CCC(C)(C)NC4)ncc3C(F)(F)F)c[nH]c12` [Example T-95], the 50% inhibitory concentration (IC50) was less than 50 nM. With `COC(=O)Nc1ccc2c(-c3nc(N[C@H]4CCC(C)(C)NC4)ncc3C(F)(F)F)c[nH]c2c1CC(F)(F)F` [Example T-97] the figure was less than 50 nM; with `COC(=O)Nc1ccc2c(-c3nc(N[C@@H]4CNCC(C)(C)C4)ncc3C(F)(F)F)c[nH]c2c1C(F)(F)F` [Example T-101], less than 50 nM.

As to `COC(=O)Nc1ccc2c(-c3nc(N[C@H]4CCCN(C)C4)ncc3C(F)(F)F)c[nH]c2c1C(F)(F)F` [Example T-111], the IC50 was less than 50 nM. With `CCN[C@H]1CCC[C@@H]1Nc1ncc(C(F)(F)F)c(-c2c[nH]c3c(Br)c(NC(=O)OC)ccc23)n1` [Example T-115] the figure was less than 50 nM; with `CCN[C@H]1CCC[C@@H]1Nc1ncc(C(F)(F)F)c(-c2c[nH]c3c(C(F)(F)F)c(NC(=O)OC)ccc23)n1` [Example T-117], less than 50 nM. With `COC(=O)Nc1ccc2c(-c3nc(N[C@H]4CCCNC4)ncc3C(F)(F)F)c[nH]c2c1OC(F)F` [Example T-121] the figure was less than 50 nM; with `COC(=O)Nc1ccc2c(-c3nc(N[C@H]4CCCNC4)ncc3Cl)c[nH]c2c1OC(F)(F)F` [Example T-123], less than 50 nM. As to `COC(=O)Nc1ccc2c(-c3nc(NC4CNC5CC5C4)ncc3C(F)(F)F)c[nH]c2c1Cl` (centres unmarked) [Example T-126], the IC50 is less than 50 nM. As to `COC(=O)Nc1ccc2c(-c3nc(N[C@H]4CC=C(C)NC4)ncc3C(F)(F)F)c[nH]c2c1OC` [Example T-133], the half-inhibitory concentration (IC50) was in the range of 50 to 500 nM. Regarding `COC(=O)Nc1ccc2c(-c3nc(N[C@H]4CC[C@H](C)NC4)ncc3C(F)(F)F)c[nH]c2c1OC` [Example T-141], the 50% inhibitory concentration (IC50) was 50 to 500 nM. Then `COC(=O)Nc1ccc2c(-c3nc(N[C@H]4CC[C@H](C)NC4)ncc3C(F)(F)F)c[nH]c2c1Br` [Example T-144], with 50 to 500 nM. For `COC(=O)Nc1ccc2c(-c3nc(N[C@H]4CCC(C)NC4)ncc3C(F)(F)F)c[nH]c2c1Cl` (some centres unmarked) [Example T-145], the half-maximal inhibitory concentration (IC50) lay within 50 to 500 nM. `COC(=O)Nc1ccc2c(-c3nc(N[C@H]4CC[C@H](C)NC4)ncc3C(F)(F)F)c[nH]c2c1Cl` [Example T-147]: the IC50 was in the range of 50 to 500 nM.

On to `COC(=O)Nc1ccc2c(-c3nc(N[C@H]4CC=C(C)NC4)ncc3C(F)(F)F)c[nH]c2c1Cl` [Example T-148], for which the IC50 is 50 to 500 nM. Consider `COC(=O)Nc1ccc2c(-c3nc(N[C@H]4CC[C@H](C)NC4)ncc3C(F)(F)F)c[nH]c2c1OCC(F)(F)F` [Example T-152], for which the IC50 was 50 to 500 nM. `COC(=O)Nc1ccc2c(-c3nc(N[C@H]4CCCNC4)ncc3C(F)(F)F)c[nH]c2c1C(C)(C)O` [Example T-157]: the IC50 was less than 50 nM. On to `CC(=O)Nc1ccc2c(-c3nc(N[C@H]4CCCNC4)ncc3C(F)(F)F)c[nH]c2c1C(C)(C)O` [Example T-158], for which the IC50 is less than 50 nM. Then `COC(=O)N(C)c1ccc2c(-c3nc(N[C@H]4CCCNC4)ncc3C(F)(F)F)c[nH]c2c1OC` [Example T-166], with less than 50 nM. For `COC(=O)Nc1ccc2c(-c3nc(N[C@H]4CCCN(C)C4)ncc3C(F)(F)F)c[nH]c2c1OC` [Example T-167], the half-maximal inhibitory concentration (IC50) was less than 50 nM. Consider `COC(=O)N(C)c1ccc2c(-c3nc(N[C@H]4CCCNC4)ncc3C(F)(F)F)c[nH]c2c1C(C)(F)F` [Example T-170], for which the concentration for half-maximal inhibition (IC50) was less than 50 nM. With `COC(=O)Nc1ccc2c(-c3nc(N[C@H]4CCCN(C)C4)ncc3C(F)(F)F)c[nH]c2c1C(C)(F)F` [Example T-171] the figure was less than 50 nM. As to `COC(=O)Nc1ccc2c(-c3nc(N[C@H]4CCCN(C)C4)ncc3C(F)(F)F)c[nH]c2c1C(F)(F)F` [Example T-172], the IC50 is less than 50 nM. As for `COC(=O)Nc1ccc2c(-c3nc(N[C@H]4CCCN(C)C4)ncc3C(F)(F)F)c[nH]c2c1OC(F)F` [Example T-173], the half-maximal inhibitory concentration (IC50) was less than 50 nM. Turning to `COC(=O)Nc1ccc2c(-c3nc(N[C@H]4CCCN(C)C4)ncc3C(F)(F)F)c[nH]c2c1C1CC1` [Example T-174], the IC50 was less than 50 nM. For `COC(=O)N(C)c1ccc2c(-c3nc(N[C@H]4CCCNC4)ncc3C(F)(F)F)c[nH]c2c1C1CC1` [Example T-175], the half-inhibitory concentration (IC50) is less than 50 nM.

The values above are taken from patent US20230295130A1, “COMPOUND USEFUL AS CDK7 KINASE INHIBITOR AND USE THEREOF” (TYK MEDICINES, INC., priority 2020, published 2023).
